Data as given in PubChem BioAssay AID248 (DTP/NCI, 2004).
Values joined by “and” are separate entries in the source; they are usually repeats but may differ in a detail not shown here. Identical values can stand only once. Inconclusive results and toxic doses are left out. Rule as the data show it: active = T/C of 150% or more; inactive = T/C below 125%.

Tested on: L1210 leukemia ip in BDF1 mice, survival T/C
Assay: NCI In Vivo Anticancer Drug Screen. Data for tumor model L1210 Leukemia (intraperitoneal) in B6D2F1 (BDF1) mice
Details: endpoint: mean survival time, higher = longer survival
Procedure, shortened: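 Antitumor effect is assessed in tumor-bearing animals. Survival in the compound arm is compared with a vehicle-dosed control arm and expressed as their quotient.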

[1] = dose: 100.0 mg/kg/injection, schedule: Q01DX001 (ip), vehicle: saline with Tween-80
[2] = dose: 200.0 mg/kg/injection, schedule: Q01DX001 (ip), vehicle: saline with Tween-80
[3] = dose: 400.0 mg/kg/injection, schedule: Q01DX001 (ip), vehicle: saline with Tween-80
[4] = dose: 100.0 mg/kg/injection, schedule: Q01DX009 (ip), vehicle: Klucel (hydroxypropylcellulose) (HPC)
[5] = dose: 100.0 mg/kg/injection, schedule: Q04DX003 (ip), vehicle: Klucel (hydroxypropylcellulose) (HPC)
[6] = dose: 200.0 mg/kg/injection, schedule: Q01DX009 (ip), vehicle: Klucel (hydroxypropylcellulose) (HPC)
[7] = dose: 200.0 mg/kg/injection, schedule: Q04DX003 (ip), vehicle: Klucel (hydroxypropylcellulose) (HPC)
[8] = dose: 400.0 mg/kg/injection, schedule: Q01DX009 (ip), vehicle: Klucel (hydroxypropylcellulose) (HPC)
[9] = dose: 400.0 mg/kg/injection, schedule: Q04DX003 (ip), vehicle: Klucel (hydroxypropylcellulose) (HPC)
[10] = dose: 50.0 mg/kg/injection, schedule: Q01DX009 (ip), vehicle: Klucel (hydroxypropylcellulose) (HPC)
[11] = dose: 50.0 mg/kg/injection, schedule: Q01DX009 (ip), vehicle: saline with Tween-80
[12] = dose: 100.0 mg/kg/injection, schedule: Q01DX001 (ip), vehicle: saline
[13] = dose: 100.0 mg/kg/injection, schedule: Q01DX009 (ip), vehicle: saline with Tween-80
[14] = dose: 200.0 mg/kg/injection, schedule: Q01DX001 (ip), vehicle: saline
[15] = dose: 200.0 mg/kg/injection, schedule: Q01DX009 (ip), vehicle: saline with Tween-80
[16] = dose: 400.0 mg/kg/injection, schedule: Q01DX001 (ip), vehicle: saline
[17] = dose: 100.0 mg/kg/injection, schedule: Q04DX002 (ip), vehicle: saline with Tween-80
[18] = dose: 200.0 mg/kg/injection, schedule: Q04DX002 (ip), vehicle: saline with Tween-80
[19] = dose: 400.0 mg/kg/injection, schedule: Q01DX009 (ip), vehicle: saline with Tween-80
[20] = dose: 400.0 mg/kg/injection, schedule: Q04DX002 (ip), vehicle: saline with Tween-80
[21] = dose: 200.0 mg/kg/injection, schedule: Q04DX003 (ip), vehicle: saline with Tween-80
[22] = dose: 25.0 mg/kg/injection, schedule: Q04DX002 (ip), vehicle: saline with Tween-80

Measured: T/C

Cc1nc(N)[nH]c(=O)c1CCCNC(=O)Cc1ccccc1
inactive: dose: 12.5 mg/kg/injection, schedule: Q01DX001 (ip), vehicle: Klucel (hydroxypropylcellulose) (HPC) 105 % of control | dose: 25.0 mg/kg/injection, schedule: Q01DX001 (ip), vehicle: Klucel (hydroxypropylcellulose) (HPC) 97 % of control | dose: 50.0 mg/kg/injection, schedule: Q01DX001 (ip), vehicle: Klucel (hydroxypropylcellulose) (HPC) 100 % of control

O=c1ccn(Cc2cccc(Oc3ccccc3)c2)c(=O)[nH]1
inactive: [1] 92 % of control | [2] 93 % of control | [3] 92 % of control

O/N=C\c1ccnc2ccccc12
inactive: dose: 100.0 mg/kg/injection, schedule: Q01DX009 (ip), vehicle: carboxymethylcellulose (CMC) 93 % of control and 98 % of control | dose: 100.0 mg/kg/injection, schedule: Q04DX002 (ip), vehicle: carboxymethylcellulose (CMC) 100 % of control (2×) and 104 % of control | dose: 100.0 mg/kg/injection, schedule: Q04DX003 (ip), vehicle: carboxymethylcellulose (CMC) 97 % of control | dose: 200.0 mg/kg/injection, schedule: Q01DX009 (ip), vehicle: carboxymethylcellulose (CMC) 105 % of control and 90 % of control | dose: 200.0 mg/kg/injection, schedule: Q04DX002 (ip), vehicle: carboxymethylcellulose (CMC) 95 % of control and 100 % of control (2×) | dose: 200.0 mg/kg/injection, schedule: Q04DX003 (ip), vehicle: carboxymethylcellulose (CMC) 104 % of control | dose: 400.0 mg/kg/injection, schedule: Q01DX009 (ip), vehicle: carboxymethylcellulose (CMC) 98 % of control | dose: 400.0 mg/kg/injection, schedule: Q04DX002 (ip), vehicle: carboxymethylcellulose (CMC) 100 % of control and 104 % of control and 90 % of control | dose: 400.0 mg/kg/injection, schedule: Q04DX003 (ip), vehicle: carboxymethylcellulose (CMC) 98 % of control

Nc1ccc(C(=O)CCCN2CCCCC2)cc1
inactive: dose: 12.5 mg/kg/injection, schedule: Q01DX009 (ip), vehicle: saline 103 % of control | dose: 25.0 mg/kg/injection, schedule: Q01DX009 (ip), vehicle: saline 97 % of control | dose: 50.0 mg/kg/injection, schedule: Q01DX009 (ip), vehicle: saline 100 % of control

OC1CCCC/C1=C/c1ccccc1 (centres undefined)
inactive: [4] 101 % of control | [5] 103 % of control | [6] 101 % of control | [7] 101 % of control | [8] 101 % of control | [9] 95 % of control

Nc1ncnc2n[nH]nc12
inactive: [10] 104 % of control | [4] 106 % of control

FC(F)(F)c1cccc(NC(=S)NNC(=S)NNc2ccccc2)c1
inactive: dose: 100.0 mg/kg/injection, schedule: Q04DX002 (ip), vehicle: Klucel (hydroxypropylcellulose) (HPC) 101 % of control | dose: 200.0 mg/kg/injection, schedule: Q04DX002 (ip), vehicle: Klucel (hydroxypropylcellulose) (HPC) 101 % of control | dose: 400.0 mg/kg/injection, schedule: Q04DX002 (ip), vehicle: Klucel (hydroxypropylcellulose) (HPC) 101 % of control

CC(=O)Nc1cccc([N+](=O)[O-])c1
inactive: [11] 100 % of control | [12] 108 % of control | [13] 90 % of control | [14] 102 % of control | [15] 103 % of control | [16] 108 % of control

CCOC(=O)c1c(O)c(=O)[nH]c2ccccc12
inactive: [13] 97 % of control | [17] 101 % of control | [15] 108 % of control | [18] 118 % of control | [19] 101 % of control | [20] 97 % of control

CS(=O)(=O)OC1C(N=[N+]=[N-])CN(C(=O)c2ccccc2)C1CCOC(=O)c1ccccc1 (centres undefined)
inactive: [1] 102 % of control | [2] 96 % of control | [3] 96 % of control

O=c1cc(Cl)c2ccccc2[nH]1
inactive: [13] 95 % of control | dose: 100.0 mg/kg/injection, schedule: Q04DX003 (ip), vehicle: saline with Tween-80 103 % of control | [15] 91 % of control | [21] 94 % of control | [19] 100 % of control | dose: 400.0 mg/kg/injection, schedule: Q04DX003 (ip), vehicle: saline with Tween-80 103 % of control

C=C(Br)CNC(=O)C(=O)OCC
inactive: [11] 97 % of control | [13] 94 % of control | dose: 132.0 mg/kg/injection, schedule: Q04DX003 (ip), vehicle: saline with Tween-80 93 % of control | [15] 97 % of control | [21] 90 % of control | dose: 300.0 mg/kg/injection, schedule: Q04DX003 (ip), vehicle: saline with Tween-80 96 % of control

C=C(C)C1CCC2(C(=O)OC)CCC3(C)C(CCC4C5(C)CCC(OC6CCCCO6)C(C)(C)C5CCC43C)C12 (centres undefined)
inactive: [22] 86 % of control | [17] 86 % of control

CC(C)Cc1ncc(CCCN=C(N)N)[nH]c1=O
inactive: dose: 12.5 mg/kg/injection, schedule: Q04DX002 (ip), vehicle: saline with Tween-80 106 % of control | [22] 98 % of control | dose: 50.0 mg/kg/injection, schedule: Q04DX002 (ip), vehicle: saline with Tween-80 95 % of control | [17] 103 % of control

Cc1cc(C(=O)O)c(CN2C(=O)c3ccccc3C2=O)c(=O)n1C
inactive: [1] 105 % of control | dose: 100.0 mg/kg/injection, schedule: Q04DX003 (ip), vehicle: water 102 % of control | [2] 100 % of control | dose: 200.0 mg/kg/injection, schedule: Q04DX003 (ip), vehicle: water 100 % of control | [3] 100 % of control | dose: 400.0 mg/kg/injection, schedule: Q04DX003 (ip), vehicle: water 104 % of control

O=[N+]([O-])c1cc([N+](=O)[O-])c(Nn2c3ccccc3c3ccccc32)c([N+](=O)[O-])c1
inactive: dose: 6.25 mg/kg/injection, schedule: Q01DX009 (ip), vehicle: Klucel (hydroxypropylcellulose) (HPC) 103 % of control | dose: 12.5 mg/kg/injection, schedule: Q01DX009 (ip), vehicle: Klucel (hydroxypropylcellulose) (HPC) 104 % of control and 87 % of control | dose: 25.0 mg/kg/injection, schedule: Q01DX009 (ip), vehicle: Klucel (hydroxypropylcellulose) (HPC) 100 % of control and 102 % of control | dose: 25.0 mg/kg/injection, schedule: Q04DX003 (ip), vehicle: Klucel (hydroxypropylcellulose) (HPC) 107 % of control | [10] 96 % of control | dose: 50.0 mg/kg/injection, schedule: Q04DX003 (ip), vehicle: Klucel (hydroxypropylcellulose) (HPC) 95 % of control | [4] 94 % of control | [5] 92 % of control and 96 % of control | [7] 94 % of control and 87 % of control | [9] 102 % of control

O=C1C(=O)c2ccccc2C(O)=C1Sc1ccc(Cl)cc1
inactive: dose: 75.0 mg/kg/injection, schedule: Q01DX001 (ip), vehicle: carboxymethylcellulose (CMC) 103 % of control | dose: 150.0 mg/kg/injection, schedule: Q01DX001 (ip), vehicle: carboxymethylcellulose (CMC) 98 % of control | dose: 300.0 mg/kg/injection, schedule: Q01DX001 (ip), vehicle: carboxymethylcellulose (CMC) 98 % of control

Cc1ccccc1NC(=S)NCCC(=O)O
inactive: [17] 105 % of control | [18] 97 % of control | [20] 97 % of control

CCCCn1cnc2ccc3[nH]c(C)nc3c2c1=O
inactive: dose: 12.5 mg/kg/injection, schedule: Q01DX001 (ip), vehicle: carboxymethylcellulose (CMC) 104 % of control | dose: 25.0 mg/kg/injection, schedule: Q01DX001 (ip), vehicle: carboxymethylcellulose (CMC) 96 % of control

CCCCCCCCCCCCCCCCn1/c(=N/N=C/c2ccccc2S(=O)(=O)O)sc2ccccc21
inactive: [4] 106 % of control | [5] 113 % of control | [6] 112 % of control | [7] 106 % of control | [8] 105 % of control | [9] 116 % of control

COc1cccc(/C=N/Nc2nnc(N/N=C/c3cccc(OC)c3OC)c3ccccc23)c1OC
inactive: dose: 50.0 mg/kg/injection, schedule: Q01DX001 (ip), vehicle: saline 92 % of control | [12] 92 % of control | [14] 92 % of control | [16] 94 % of control

O=C(OCCc1ccccc1)c1ccccc1
inactive: [17] 100 % of control | [18] 100 % of control | [20] 103 % of control
